In brackets after ≈: the same amount, converted by molar mass. Read-outs that look alike come from different tables or passages of the source.
Assays:
[1] = Solubility of individual components of flavanolignans in the mixture according to Example 1; type: physicochemical; details: for solubility: read-out: Solubility of individual component in the mixture according to Example 1
Description: Solubility of individual components of flavanolignans in the mixture according to Example 1

[2] = cited from earlier work
[3] = aqueous solution, 25° C., cited from earlier work; for p I: pI = ½ (pK2 + pK3)
[4] = 25° C., cited from earlier work
[5] = Solutions of amino acids in water easily prepared at room temperature; type: physicochemical
Description: When dissolving the mixtures according to the invention in water it is necessary to take into consideration the different solubilities of the basic amino acids themselves.

[6] = Buffer solution pH 4.5 (Bates, sodium acetate and hydrochloric acid, ionic strength 0.05)

For `COc1cc([C@@H]2[C@H]3CO[C@@]4(O)C(=O)[C@@H]2C=C([C@H]2Oc5cc(O)cc(O)c5C(=O)[C@@H]2O)[C@@H]34)ccc1O` [silydianin], the solubility ([1]; aqueous buffer, Buffer solution pH 4.5 (Bates, sodium acetate and hydrochloric acid, ionic strength 0.05)) is given as 189 µg/mL (≈ 392 µM), the solubility ([1]; purified water, water) is given as 215 µg/mL (≈ 445 µM) and the pKa.1 ([2]; 25° C.) is given as 6.64. The pKa.2 ([2]; 25° C.) was 7.78, the pKa.3 ([2]; 25° C.) was 9.66 and the pKa.1 ([2]; 37° C.) was 7.10. For the same molecule, the pKa.2 ([2]; 37° C.) was 8.93 and the pKa.3 ([2]; 37° C.) was 10.06.

In the case of `N=C(N)NCCC[C@H](N)C(=O)O` [L-arginine], the pK1 [3] is listed as 2.01, the pK2 [3] is listed as 9.04 and the pK3 [3] is listed as 12.48. For the same molecule, the “p I” value [3] was 10.76.

With Isosylibin the “Solubility of individual component in the mixture according to Example 1” value (“Solubility of individual component” for short) [1, 6] was 78.63 µg/mL and the “Solubility of individual component” value ([1]; Purified water) was 112.90 µg/mL.

In the case of `COc1cc([C@@H]2Oc3cc([C@H]4Oc5cc(O)cc(O)c5C(=O)[C@@H]4O)ccc3O[C@H]2CO)ccc1O` [Silybin B, silybin B], the “Solubility of individual component” value [1, 6] is reported as 209.62 µg/mL and the “Solubility of individual component” value ([1]; Purified water) is reported as 289.05 µg/mL.

In the case of `COc1cc([C@@H]2Oc3c(O)cc([C@H]4Oc5cc(O)cc(O)c5C(=O)[C@@H]4O)cc3[C@H]2CO)ccc1O` [silychristin], the “Solubility of individual component” value [1, 6] is given as 241.57 µg/mL, the “Solubility of individual component” value ([1]; Purified water) is given as 258.24 µg/mL and the pKa.1 ([2]; 25° C.) is given as 6.52. For the same molecule, the pKa.2 ([2]; 25° C.) was 7.22, the pKa.3 ([2]; 25° C.) was 8.96 and the pKa.1 ([2]; 37° C.) was 6.62. The pKa.2 ([2]; 37° C.) was 7.41 and the pKa.3 ([2]; 37° C.) was 8.94.

For `COc1cc(C2Oc3cc([C@H]4Oc5cc(O)cc(O)c5C(=O)[C@@H]4O)ccc3OC2CO)ccc1O` (stereo partly shown) [silybin], the solubility of silybin ([4]; Capryl-caprine triglyceride) is listed as 800 ± 500 µg/mL, the solubility of silybin ([4]; Castor oil) is listed as 7100 ± 1200 µg/mL and the solubility of silybin ([4]; Ethanol) is listed as 225200 ± 5200 µg/mL. For the same molecule, the solubility of silybin ([4]; Ethoxy diglycol) was 350100 ± 10400 µg/mL, the solubility of silybin ([4]; Ethyl linoleate) was 2100 ± 800 µg/mL and the solubility of silybin ([4]; Fish oil) was 500 ± 200 µg/mL. The solubility of silybin ([4]; Glyceryl monooleate) was 33200 ± 2800 µg/mL, the solubility of silybin ([4]; Polyethylene glycol 200) was 345900 ± 9500 µg/mL and the solubility of silybin ([4]; Polyethylene glycol 400/ethanol (1:1)) was 342100 ± 7100 µg/mL. The solubility of silybin ([4]; Propylene glycol) was 162400 ± 3600 µg/mL, the solubility of silybin ([4]; Tocopherol) was 20000 ± 1900 µg/mL and the solubility of silybin ([4]; Water) was 400 ± 100 µg/mL. The pKa.1 ([2]; 25° C.) was 7.00, the pKa.2 ([2]; 25° C.) was “pKa.2[25° C.] = 8.77; pKa.2[37° C.] = 8.77” and the pKa.3 ([2]; 25° C.) was 9.57. The pKa.1 ([2]; 37° C.) was 6.86, the pKa.2 ([2]; 37° C.) was “pKa.2[25° C.] = 8.77; pKa.2[37° C.] = 8.77” and the pKa.3 ([2]; 37° C.) was 9.62.

In the case of `COc1cc([C@H]2Oc3cc([C@H]4Oc5cc(O)cc(O)c5C(=O)[C@@H]4O)ccc3O[C@@H]2CO)ccc1O` [Silybin A, silybin A], the “Solubility of individual component” value [1, 6] is reported as 127.95 µg/mL and the “Solubility of individual component” value ([1]; Purified water) is reported as 178.41 µg/mL.

For `NCCCC[C@H](N)C(=O)O` [L-lysine], the “concentration of amino acid solution in water that can be easily prepared” value [5] is listed as 1.0 M, the pK1 [3] is listed as 2.18 and the pK2 [3] is listed as 8.95. The pK3 [3] was 10.53 and the “p I” value [3] was 9.47.
